In paper PMC10487316, “A high‐throughput microfluidic mechanoporation platform to enable intracellular delivery of cyclic peptides in cell‐based assays” (Bioengineering & Translational Medicine, 2023):
Where a SMILES comes first, the peptide text is derived from it. Bridges are numbered along the chain shown (N, C = ends). [ ]: non-standard residue; d: D form. Lys(N3) = [N-]=[N+]=NCCCC[C@H](N)C(=O)O; R8 = C=CCCCCCC[C@@](C)(N)C(=O)O; Cba = N[C@@H](CC1CCC1)C(=O)O; S5 = C=CCCC[C@](C)(N)C(=O)O; βAla = NCCC(=O)O

Key:
[1] = target: T1, MDM2 (1–125) protein (Homo sapiens, UniProt Q00987); experiment: MDM2 binding assay (fluorescence anisotropy competition); details: competition vs 50 nM FAM-labeled 12/1 peptide, 250 nM MDM2; heat map of Figure 5a
T1 construct: made in house
T1 sequence (Q00987 1-125): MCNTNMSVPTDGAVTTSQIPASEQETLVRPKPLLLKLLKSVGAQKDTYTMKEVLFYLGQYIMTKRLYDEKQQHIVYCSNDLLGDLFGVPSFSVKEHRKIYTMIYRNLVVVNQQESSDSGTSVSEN
Protocol: MDM2 protein generation and binding studies were performed as described.[17] […] The competing molecules were then titrated against the complex of the FAM‐labeled peptide and protein. Curve‐fitting was carried out using Prism 4.0 (GraphPad) to determine K D values. Readings were carried out with an Envision Multilabel Reader (PerkinElmer). […] All titrations were carried out in triplicate.

[2] = tested on: CellSensor p53RE-bla HCT116 cell line (p53 response element reporter); experiment: HCT116 p53 β-lactamase reporter gene functional assay; assay type: cell-based, human; details: for p53 activation at 10 μM with and without DμVS: 10 μM peptide, unprocessed vs DμVS-processed cells
Protocol: The CellSensor™ p53RE‐bla HCT116 cell line (K1640, Thermo Scientific) was used for functional characterization of p53 pathway activation by DμVS‐delivered peptides. Assay was performed similarly to how previously described.[17] These cells harbor a stable integration of a β‐lactamase reporter gene under control of the p53 response element. Cells were maintained in McCoy's 5A medium (16600‐082, Invitrogen) with 10% dialyzed FBS (26400‐036, Invitrogen), blasticidin (R210‐01, Invitrogen), and penicillin/streptomycin according to the manufacturer's protocol. Peptides were synthesized as previously described.[16], [17] To set up the assay, peptides were first pre‐plated in assay medium (Opti‐MEM supplemented with 0.1 mM non‐essential amino acids [11140‐050, Invitrogen], 1 mM sodium pyruvate [11360‐070, Invitrogen], and penicillin/streptomycin) without FBS on 384‐well plates (Corning 3764) or 96‐well plates (Corning 3603) using a HP D300E digital dispenser (20 μl 384‐well, 50 μl 96‐well). Maximum DMSO concentration used was 0.3% v/v. Cells were washed, resuspended with 0.05% v/v trypsin, spun down for 5 min at 300× g, and resuspended in PBS. Cells were 70‐μm strained and then brought to a final cell density of 3 × 10^6 cells/ml in PBS. Cell suspension was connected to 15 mL P‐CAP of the DμVS system, and 2 mL were used to prime the system. DμVS process was then initiated at 120 psi and 20 μL (384‐well) or 50 μL (96‐well) were dispensed to microplate in wells that were pre‐defined in the Telios software and pre‐loaded with peptides 2× in assay medium. Unprocessed cells were added to the microplate in parallel. After DμVS processing/mixing with peptide, cells were incubated at 37°C for 4 h. β‐lactamase activity was detected using the ToxBLAzer loading kit (K1095, Invitrogen) according to the manufacturer's protocol. Plates were measured using the PHERAstar FSX microplate reader with a LiveBlazer optic module (1400‐G3M‐FI‐410‐530‐460, BMG Labtech). Maximum p53 activity was defined as the β‐lactamase activity induced by 30 μM MP‐081 (meanpos). Percent activation of individual samples (S) was calculated using the following equation, where meanveh represents the mean of vehicle controls: % activation=S−meanveh/meanpos−meanveh×100
Z‐factors were calculated using the formula: Z^′=1−3σpos+3σveh/meanpos−meanveh
Meanpos and σ pos represent the mean and standard deviation, respectively, of the raw ratiometric values for 30 μM MP‐081 and meanveh and σ veh represent the mean and standard deviation of the vehicle controls. Dose–response data EC50 values were determined using the “[Agonist] versus response—Variable slope (four parameters)” algorithm in GraphPad Prism. Single concentration data for expanded peptide set were analyzed using unpaired T‐tests with false discovery rate (FDR, 1.00%) multiple comparisons correction using the two‐stage step‐up (Benjamini, Krieger, and Yekutieli) method. Data were accumulated from at least five independent experimental runs.

Kd [1] [nM] | EC50 ([2]; DμVS-based assay format, expanded peptide set, read-out: DμVS-p53 reporter EC50 (validated hits, dose response)) [nM] | Molecule | p53 activation at 10 μM with and without DμVS [2]
27 |  | CC(=O)N[C@H](CC(C)C)C(=O)N[C@H](C(=O)N[C@@H](Cc1ccccc1)C(=O)N[C@@H](CCC(=O)O)C(=O)N[C@@H](CCC(=O)O)C(=O)N[C@@H](Cc1ccc(O)cc1)C(=O)N[C@@H](Cc1c[nH]c2ccccc12)C(=O)N[C@@H](C)C(=O)N[C@@H](CCC(N)=O)C(=O)N[C@@H](CC(C)C)C(=O)N[C@H](C(=O)N[C@@H](CO)C(N)=O)[C@@H](C)O)[C@@H](C)O [MP-191] (Ac-[dL]TFEEYWAQLTS-NH2) | 
 |  | CC(=O)N[C@@H](C(=O)N[C@H](C)C(=O)N[C@H](Cc1c[nH]c2ccccc12)C(=O)N[C@H](Cc1ccc(O)cc1)C(=O)N[C@H](C)C(=O)N[C@H](CC(N)=O)C(=O)N[C@H](Cc1ccccc1)C(=O)N[C@H](CCC(=O)O)C(=O)N[C@H](CCCCN)C(=O)N[C@H](CC(C)C)C(=O)N[C@H](CC(C)C)C(=O)N[C@H](CCCNC(=N)N)C(N)=O)[C@H](C)O [MP-183, Ac-DThr-DAla-DTrp-DTyr-DAla-DAsn-DPhe-DGlu-DLys-DLeu-DLeu-DArg-NH2] (Ac-[dT][dA][dW][dY][dA][dN][dF][dE][dK][dL][dL][dR]-NH2) | lack of activity
0.97 |  | CC(=O)N[C@@H](CCCCN=[N+]=[N-])C(=O)NCCC(=O)N[C@@H](CC(C)C)C(=O)N[C@H](C(=O)N[C@@H](Cc1ccccc1)C(=O)N[C@]1(C)CCCCCCC=CCCC[C@@](C)(C(=O)N[C@@H](CCC(=O)O)C(=O)N[C@@H](C)C(=O)N[C@@H](C)C(=O)N[C@@H](C)C(=O)N[C@@H](C)C(=O)N[C@H](C)C(N)=O)NC(=O)[C@H](CC2CCC2)NC(=O)[C@H](CCC(N)=O)NC(=O)[C@H](C)NC(=O)[C@H](Cc2c[nH]c3ccccc23)NC(=O)[C@H](Cc2ccc(O)cc2)NC(=O)[C@H](CCC(=O)O)NC1=O)[C@@H](C)O [MP-834, Ac-Lys(N3)-betaAla-Leu-Thr-Phe-R8*-Glu-Tyr-Trp-Ala-Gln-Cba-S5*-Glu-Ala-Ala-Ala-Ala-DAla-NH2] (Ac-[Lys(N3)][βAla]LTF[R8]EYWAQ[Cba][S5]EAAAA[dA]-NH2; staple 6-13) | 
 | 1000 | H-Lys(N3)-betaAla-Leu-Thr-Phe-R8*-Glu-Tyr-Trp-Ala-Gln-Cba-S5*-Ser-Ala-Ala-Lys(mPEG24)-NH2 [MP-414] | showed functional activity
115 |  | CC(=O)N[C@@H](CC(C)C)C(=O)N[C@H](C(=O)N[C@@H](Cc1ccccc1)C(=O)N[C@@H](CCC(=O)O)C(=O)N[C@@H](CCC(=O)O)C(=O)N[C@@H](Cc1ccc(O)cc1)C(=O)N[C@@H](Cc1c[nH]c2ccccc12)C(=O)N[C@@H](C)C(=O)N[C@H](CCC(N)=O)C(=O)N[C@@H](CC(C)C)C(=O)N[C@H](C(=O)N[C@@H](CO)C(N)=O)[C@@H](C)O)[C@@H](C)O [MP-793] (Ac-LTFEEYWA[dQ]LTS-NH2) | 
15 |  | CC(=O)N[C@H](C(=O)N[C@@H](CO)C(=O)N[C@@](C)(Cc1ccccc1)C(=O)N[C@]1(C)CCCCCCC=CCCC[C@@](C)(C(N)=O)NC(=O)[C@H](CC(C)C)NC(=O)[C@H](CC(C)C)NC(=O)[C@H](C)NC(=O)[C@H](Cc2c[nH]c3ccccc23)NC(=O)[C@H](Cc2ccc(O)cc2)NC(=O)[C@H](CCC(=O)O)NC1=O)[C@@H](C)O [MP-159, Ac-Thr-Ser-(ɑ-Me-Phe)-R8*-Glu-Tyr-Trp-Ala-Leu-Leu-S5*-NH2] | 
0.85 |  | CC(C)C[C@@H]1NC(=O)[C@H](C)NC(=O)[C@H](Cc2c[nH]c3ccccc23)NC(=O)[C@H](Cc2ccc(O)cc2)NC(=O)[C@H](CCC(=O)O)NC(=O)[C@](C)(NC(=O)[C@H](Cc2ccccc2)NC(=O)[C@H](CO)NC(=O)[C@@H](NC(=O)[C@H](CO)NC(=O)CNC(=O)[C@H](CO)NC(=O)[C@H](CCCCN=[N+]=[N-])NC(=O)[C@H](CCC(=O)O)NC(=O)[C@H](CCC(=O)O)NC(=O)[C@@H](N)CCC(=O)O)[C@@H](C)O)CCCCCCC=CCCC[C@@](C)(C(N)=O)NC(=O)[C@H](CC(C)C)NC1=O [MP-948, NH2-Glu-Glu-Glu-Lys(N3)-Ser-Gly-Ser-Thr-Ser-Phe-R8*-Glu-Tyr-Trp-Ala-Leu-Leu-S5*-NH2] (H-EEE[Lys(N3)]SGSTSF[R8]EYWALL[S5]-NH2; staple 11-18) | 
 |  | CC(=O)N[C@@H](CC(C)C)C(=O)N[C@H](C(=O)N[C@H](Cc1ccccc1)C(=O)N[C@]1(C)CCCCCCC=CCCC[C@@](C)(C(=O)N[C@@H](C)C(=O)N[C@@H](C)C(=O)N[C@@H](C)C(=O)N[C@@H](C)C(=O)N[C@@H](C)C(=O)N[C@H](C)C(N)=O)NC(=O)[C@H](CC(C)C)NC(=O)[C@H](CCC(N)=O)NC(=O)[C@H](C)NC(=O)[C@H](Cc2c[nH]c3ccccc23)NC(=O)[C@H](Cc2ccc(O)cc2)NC(=O)[C@H](CCC(=O)O)NC1=O)[C@@H](C)O [MP-990, Ac-Leu-Thr-DPhe-R8*-Glu-Tyr-Trp-Ala-Gln-Leu-S5*-Ala-Ala-Ala-Ala-Ala-DAla-NH2] (Ac-LT[dF][R8]EYWAQL[S5]AAAAA[dA]-NH2; staple 4-11) | no activity in either format
17 |  | Ac-LTFEEYWAQLTS-NH2 [MP-190] | 
88 |  | CC(=O)N[C@@H](CC(C)C)C(=O)N[C@H](C(=O)N[C@@H](Cc1ccccc1)C(=O)NC(C)(C)C(=O)N[C@@H](CCC(=O)O)C(=O)N[C@@H](Cc1ccc(O)cc1)C(=O)N[C@@H](Cc1c[nH]c2ccccc12)C(=O)N[C@@H](CCC(N)=O)C(=O)N[C@@H](CC(C)C)C(=O)N[C@@H](CC1CCC1)C(=O)NC(C)(C)C(=O)N[C@@H](CO)C(=O)N[C@@H](C)C(=O)N[C@@H](C)C(=O)O)[C@@H](C)O [MP-788, Ac-Leu-Thr-Phe-Aib-Glu-Tyr-Trp-Gln-Leu-Cba-Aib-Ser-Ala-Ala-OH] | 
17 |  | CC(C)C[C@@H]1NC(=O)[C@H](C)NC(=O)[C@H](Cc2c[nH]c3ccccc23)NC(=O)[C@H](Cc2ccc(O)cc2)NC(=O)[C@H](CCC(=O)O)NC(=O)[C@](C)(NC(=O)[C@H](Cc2ccccc2)NC(=O)[C@H](CO)NC(=O)[C@@H](NC(=O)[C@H](CO)NC(=O)CNC(=O)[C@H](CO)NC(=O)[C@H](CCCCN=[N+]=[N-])NC(=O)[C@H](CCC(=O)O)NC(=O)[C@@H](N)CCC(=O)O)[C@@H](C)O)CCCCCCC=CCCC[C@@](C)(C(N)=O)NC(=O)[C@H](CC(C)C)NC1=O [MP-181, H-Glu-Glu-Lys(N3)-Ser-Gly-Ser-Thr-Ser-Phe-R8*-Glu-Tyr-Trp-Ala-Leu-Leu-S5*-NH2] (H-EE[Lys(N3)]SGSTSF[R8]EYWALL[S5]-NH2; staple 10-17) | 
0.53 |  | CC(C)C[C@H]1NC(=O)[C@@H](CCCCN)NC(=O)[C@@H](CCC(=O)O)NC(=O)[C@@H](Cc2ccc(C(F)(F)F)cc2)NC(=O)[C@@H](CC(N)=O)NC(=O)C2(CCCC=CCCCCCC[C@](C)(C(=O)N[C@H](C)C(=O)N[C@H](C)C(=O)N[C@H](C)C(=O)N[C@H](C)C(=O)N[C@H](C)C(=O)N[C@H](C)C(N)=O)NC(=O)[C@@H](CC(C)C)NC1=O)CCCC=CCCC[C@@](C)(N)C(=O)N[C@H](C)C(=O)N[C@H](Cc1c[nH]c3cc(F)ccc13)C(=O)N[C@H](Cc1ccc(O)cc1)C(=O)N2 (some centres unmarked) [MP-231, H-R5*-DAla-DTrp(6-F)-DTyr-B5**-DAsn-DPhe(4-CF3)-DGlu-DLys-DLeu-DLeu-R8*-DAla-DAla-DAla-DAla-DAla-DAla-NH2] | 
 |  | CC(C)C[C@@H](NC(=O)[C@@H](CC(C)C)NC(=O)[C@@H](CCCCN)NC(=O)[C@@H](CCC(=O)O)NC(=O)[C@@H](Cc1ccccc1)NC(=O)[C@@H](CC(N)=O)NC(=O)[C@@H](C)NC(=O)[C@@H](Cc1ccc(O)cc1)NC(=O)[C@@H](Cc1c[nH]c2ccccc12)NC(=O)[C@@H](C)NC(=O)[C@H](N)[C@H](C)O)C(=O)N[C@H](CCCNC(=N)N)C(N)=O [MP-182, H-DThr-DAla-DTrp-DTyr-DAla-DAsn-DPhe-DGlu-DLys-DLeu-DLeu-DArg-NH2] (H-[dT][dA][dW][dY][dA][dN][dF][dE][dK][dL][dL][dR]-NH2) | lack of activity
